Each structure is given as a SMILES string.

The values below come from PMC12648285 (JACS Au, 2025).

The test system of assay [1] is p-TRKA and p-AKT in KM12-Luc cells. As to the kind of experiment: Western blot of TRKA activation and downstream signalling in KM12-Luc cells. It is filed as cell-based. The settings on record: 6 h. On the technique in general: Immunoblotting shows a protein as a band on a membrane.
In assay [2] the target is T1, TRKA (440-796) (Homo sapiens, UniProt P04629). As to the kind of experiment: Site mapping using LC-MS/MS, TRKA+7. It counts as binding.
The target in a further assay is TRKA (Homo sapiens, UniProt P04629). As to the kind of experiment: TRKA kinase biochemical assay.
The target in assay [3] is TRKA kinase domain (440-796) (Homo sapiens, UniProt P04629). Briefly: Intact protein mass spectrometry, covalent labelling of TRKA. It is filed as binding. The conditions noted are these: intact protein MS, 2 h incubation, 25 °C, compound/protein 10:1.
Assay [4] deals with T1, TRKA (440-796). Briefly: Time-dependent intact protein mass. It is filed as binding.
Another assay addresses TRKB (Homo sapiens, UniProt Q16620). As to the kind of experiment: TRKB kinase biochemical assay.
The target in another assay is TRKC (Homo sapiens, UniProt Q16288). Briefly: TRKC kinase biochemical assay.
The test system of assay [5] is A549 cells. As to the kind of experiment: Anti-proliferative assay, A549 cells. It is filed as cell-based. The settings on record: 72 h.
Another assay deals with GAC (73-598). As to the kind of experiment: Intact protein mass spectrometry, covalent modification of GAC. It counts as binding.
The target of the next assay is T2, GAC (Macaca mulatta, UniProt F7AIH5).
T2 sequence (F7AIH5 73-598): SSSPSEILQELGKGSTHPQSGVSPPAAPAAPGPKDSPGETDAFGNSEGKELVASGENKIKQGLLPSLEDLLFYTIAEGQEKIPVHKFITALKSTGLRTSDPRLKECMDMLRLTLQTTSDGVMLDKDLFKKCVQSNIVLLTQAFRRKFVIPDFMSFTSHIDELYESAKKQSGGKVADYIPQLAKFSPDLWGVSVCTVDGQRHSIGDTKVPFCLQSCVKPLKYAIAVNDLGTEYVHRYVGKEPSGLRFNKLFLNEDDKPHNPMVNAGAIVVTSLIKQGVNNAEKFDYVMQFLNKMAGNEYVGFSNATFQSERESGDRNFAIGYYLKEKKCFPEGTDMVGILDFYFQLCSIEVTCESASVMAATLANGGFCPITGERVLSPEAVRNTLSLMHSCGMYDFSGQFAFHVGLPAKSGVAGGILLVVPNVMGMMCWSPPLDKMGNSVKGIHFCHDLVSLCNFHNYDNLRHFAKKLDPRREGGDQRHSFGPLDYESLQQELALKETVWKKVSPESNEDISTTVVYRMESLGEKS
Briefly: Recombinant GAC enzymatic assay. It is filed as biochemical.

For assay [6], the system named is A549 cells. As to the kind of experiment: Determination of reactive oxygen species. It counts as cell-based. The settings on record: 16 h, flow cytometry. On the technique in general: In flow cytometry, cells or beads pass a laser one at a time.
Assay [7] deals with A549 cells. Briefly: Determination of intracellular glutamate and glutamine levels. The conditions noted are these: 16 h treatment. It is filed as cell-based.
The test system of another assay is GAC^WT and GAC^K320A. Briefly: Western blot of acetylation of GAC WT and GAC K320A. It is filed as biochemical. The settings on record: 45 min.
[8] abbreviates: time-dependent intact protein MS, TRKA.

T1 sequence (P04629 440-796): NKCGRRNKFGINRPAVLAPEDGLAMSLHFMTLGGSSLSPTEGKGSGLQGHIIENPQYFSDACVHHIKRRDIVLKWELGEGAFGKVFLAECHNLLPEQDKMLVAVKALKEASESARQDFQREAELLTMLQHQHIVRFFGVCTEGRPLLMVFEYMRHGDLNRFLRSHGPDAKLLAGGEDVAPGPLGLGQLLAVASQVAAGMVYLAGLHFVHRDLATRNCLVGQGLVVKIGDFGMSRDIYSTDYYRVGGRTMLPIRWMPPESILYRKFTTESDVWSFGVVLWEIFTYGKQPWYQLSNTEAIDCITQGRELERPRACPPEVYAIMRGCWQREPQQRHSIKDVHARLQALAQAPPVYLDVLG
Sequence of TRKA kinase domain (440-796) (P04629 440-796): as above
Sequence of TRKB (Q16620 32-822): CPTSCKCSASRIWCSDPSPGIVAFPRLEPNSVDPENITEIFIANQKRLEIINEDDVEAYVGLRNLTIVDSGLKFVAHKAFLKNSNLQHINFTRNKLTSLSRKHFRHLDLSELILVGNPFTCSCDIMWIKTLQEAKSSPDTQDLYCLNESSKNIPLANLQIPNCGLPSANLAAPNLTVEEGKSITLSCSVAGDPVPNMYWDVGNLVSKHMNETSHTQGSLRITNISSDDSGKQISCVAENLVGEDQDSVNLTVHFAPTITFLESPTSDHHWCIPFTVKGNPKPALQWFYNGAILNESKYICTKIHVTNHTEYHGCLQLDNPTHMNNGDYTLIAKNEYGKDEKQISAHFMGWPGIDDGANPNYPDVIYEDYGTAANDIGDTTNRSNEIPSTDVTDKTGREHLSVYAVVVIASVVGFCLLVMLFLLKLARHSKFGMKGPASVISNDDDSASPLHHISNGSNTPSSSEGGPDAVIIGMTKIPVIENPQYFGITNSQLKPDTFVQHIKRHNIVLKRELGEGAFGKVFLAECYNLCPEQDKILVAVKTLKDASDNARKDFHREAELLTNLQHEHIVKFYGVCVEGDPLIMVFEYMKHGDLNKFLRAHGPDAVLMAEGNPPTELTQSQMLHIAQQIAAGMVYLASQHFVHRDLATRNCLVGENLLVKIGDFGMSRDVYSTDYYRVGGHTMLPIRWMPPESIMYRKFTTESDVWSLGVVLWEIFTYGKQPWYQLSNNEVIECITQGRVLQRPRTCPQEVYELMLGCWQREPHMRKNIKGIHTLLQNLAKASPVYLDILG
Sequence of TRKC (Q16288 32-839): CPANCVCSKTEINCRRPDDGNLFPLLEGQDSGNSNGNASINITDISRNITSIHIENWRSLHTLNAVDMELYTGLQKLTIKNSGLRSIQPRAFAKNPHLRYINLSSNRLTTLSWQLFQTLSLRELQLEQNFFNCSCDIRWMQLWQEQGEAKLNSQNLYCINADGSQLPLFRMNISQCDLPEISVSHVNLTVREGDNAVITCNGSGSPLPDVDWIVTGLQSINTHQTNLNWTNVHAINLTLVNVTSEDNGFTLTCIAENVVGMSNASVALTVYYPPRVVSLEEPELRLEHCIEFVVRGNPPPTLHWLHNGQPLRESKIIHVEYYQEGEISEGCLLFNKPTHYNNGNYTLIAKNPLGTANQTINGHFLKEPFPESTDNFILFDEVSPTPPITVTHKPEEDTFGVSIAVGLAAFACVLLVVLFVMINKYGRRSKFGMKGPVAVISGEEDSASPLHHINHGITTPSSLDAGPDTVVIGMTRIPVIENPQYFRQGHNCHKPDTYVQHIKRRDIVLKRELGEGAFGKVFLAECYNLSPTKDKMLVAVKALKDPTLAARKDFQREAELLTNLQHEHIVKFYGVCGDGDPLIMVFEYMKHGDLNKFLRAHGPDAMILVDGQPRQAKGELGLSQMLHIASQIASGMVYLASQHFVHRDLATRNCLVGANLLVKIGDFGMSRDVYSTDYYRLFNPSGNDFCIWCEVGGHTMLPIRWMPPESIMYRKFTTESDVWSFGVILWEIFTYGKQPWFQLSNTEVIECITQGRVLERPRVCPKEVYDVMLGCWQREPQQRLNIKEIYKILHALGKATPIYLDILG
Sequence of TRKA (P04629 33-796): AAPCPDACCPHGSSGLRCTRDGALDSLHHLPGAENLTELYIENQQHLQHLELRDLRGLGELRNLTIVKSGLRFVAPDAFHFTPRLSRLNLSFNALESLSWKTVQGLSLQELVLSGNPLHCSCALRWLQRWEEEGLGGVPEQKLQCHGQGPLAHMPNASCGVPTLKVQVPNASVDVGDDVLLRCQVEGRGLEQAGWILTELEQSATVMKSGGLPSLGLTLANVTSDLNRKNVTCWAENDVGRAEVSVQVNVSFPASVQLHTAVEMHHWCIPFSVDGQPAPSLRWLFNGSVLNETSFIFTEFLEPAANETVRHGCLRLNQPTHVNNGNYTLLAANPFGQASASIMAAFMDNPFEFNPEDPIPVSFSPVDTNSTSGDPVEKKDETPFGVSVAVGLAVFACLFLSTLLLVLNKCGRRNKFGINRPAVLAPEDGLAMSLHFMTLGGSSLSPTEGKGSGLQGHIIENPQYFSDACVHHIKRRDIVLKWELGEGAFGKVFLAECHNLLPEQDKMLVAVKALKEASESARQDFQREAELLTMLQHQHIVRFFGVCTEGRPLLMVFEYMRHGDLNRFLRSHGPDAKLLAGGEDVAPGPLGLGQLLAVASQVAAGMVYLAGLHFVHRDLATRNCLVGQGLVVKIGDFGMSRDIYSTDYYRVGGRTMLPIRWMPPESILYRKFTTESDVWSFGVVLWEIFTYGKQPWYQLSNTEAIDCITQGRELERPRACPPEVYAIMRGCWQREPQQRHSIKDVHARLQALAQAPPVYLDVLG

In general, IC50 refers to the concentration needed to halve the response being measured. A high value points to weaker potency in that assay. For `C#Cc1cc(-c2cc(Nc3nc(N[C@@H](C)c4ccc(F)cn4)ncc3Cl)n[nH]2)ccc1C=O` [Compound 7], in assay [1], the “Phosphorylation of TRKA and downstream AKT” value is listed as “efficiently suppress the phosphorylation of TRKA as well as its downstream AKT”. Further, at TRKA (440-796) [2], the “Covalent binding site identified in TRKA” value was “Lys544”. Further, at TRKA (440-796) [2] (TRKA + compound, 25 °C, 2 h), the “Modification rate of Lys544” value was 95%. For the same compound, the IC50 stood at 11.5 nM on TRKA, 1.04 nM against TRKB and 1.9 nM against TRKC. Further, the “Total binding rate of TRKA modified by compound” value in assay [3] was determined as 99.2%. This compound gave a Ki on TRKA (440-796) [4] of 800 nM. At TRKA (440-796) [4] (setting [8]), the “k inact (inactivation rate)” value is given as 0.0578 min^–1. For the same compound, on TRKA (440-796) [4] (setting [8]), the “k inact/K I” value is 1.20 × 10^3 M^–1·s^–1.

`C#Cc1c(C=O)cccc1CC(=O)Nc1nnc(N[C@@H]2CCN(c3cccnn3)C2)s1` [Compound 14]: in the assay with A549 cells [5], the “Cellular activity (A549 antiproliferative)” value (“Cellular activity” below) is reported as “limited efficacy”. Moreover, the “Covalent modification of GAC by intact protein MS” value in the assay with GAC (73-598) (8 h, 25 °C) was “confirmed covalent modification of GAC”. Also, the “Labeling efficiency of GAC” value in the assay on GAC (73-598) (intact protein MS, 8 h, 25 °C, theoretical maximum 50%) is given as around 45%.

`C#Cc1cc(CC(=O)Nc2nnc(N[C@@H]3CCN(c4cccnn4)C3)s2)ccc1C=O` [Compound 15]: the “Cellular activity” value in the assay with A549 cells [5] is listed as “limited efficacy”. Besides, at GAC, the “GAC enzymatic inhibition compared to the reversible inhibitor 13” value is “significantly enhanced GAC enzymatic inhibition”. Also, the “Covalent modification of GAC by intact protein MS” value with GAC (73-598) (8 h, 25 °C) is listed as “confirmed covalent modification of GAC”.

With `CC(=O)Oc1ccc(CC(=O)Nc2nnc(N[C@@H]3CCN(c4cccnn4)C3)s2)cc1C#N` [Compound 16], the “Cellular activity” value with A549 cells [5] was “enhanced antiproliferative activities”. The “Intracellular reactive oxygen species (ROS) level” value in the assay on A549 cells [6] was “significantly increased”. The “Glutamine-to-glutamate conversion (intracellular GLU/GLN ratio)” value with A549 cells [7] is reported as “marked reduction”. Further, the “Total protein products displaying acetylation” value with GAC (73-598) (MS of GAC-16 after 8 h incubation at 25 °C) is 71.05%. The “Acetylation of wild-type vs Lys320 mutant GAC at low concentrations” value with GAC^WT and GAC^K320A (≤2 μM) is listed as “selectively acetylated wild-type GAC, with no detectable modification of the Lys320 mutant”. Moreover, the “Acetylation of wild-type vs Lys320 mutant GAC at higher concentrations” value with GAC^WT and GAC^K320A (≥10 μM) is listed as “emerging acetylation signals in the Lys320 mutant”.
